In ChEMBL document CHEMBL1150976, “The selectivity of protein kinase inhibitors: a further update” (Biochem J, 2007):
Each block holds one compound with its values, some of them ahead of it.

What was measured:
[1] = molecular target: MAP/microtubule affinity-regulating kinase 3 (Homo sapiens) (UniProt P27448); experiment: Percentage MARK3 activity remaining in the presence of 2uM inhibitor
[2] = molecular target: Myosin light chain kinase, smooth muscle (Homo sapiens, UniProt Q15746); experiment: Percentage SmMLCK activity remaining in the presence of 2uM inhibitor
[3] = molecular target: T1, MAP kinase-activated protein kinase 5 (Homo sapiens) (UniProt Q8IW41); experiment: Percentage PRAK activity remaining in the presence of 2uM inhibitor
T1 sequence (whole entry): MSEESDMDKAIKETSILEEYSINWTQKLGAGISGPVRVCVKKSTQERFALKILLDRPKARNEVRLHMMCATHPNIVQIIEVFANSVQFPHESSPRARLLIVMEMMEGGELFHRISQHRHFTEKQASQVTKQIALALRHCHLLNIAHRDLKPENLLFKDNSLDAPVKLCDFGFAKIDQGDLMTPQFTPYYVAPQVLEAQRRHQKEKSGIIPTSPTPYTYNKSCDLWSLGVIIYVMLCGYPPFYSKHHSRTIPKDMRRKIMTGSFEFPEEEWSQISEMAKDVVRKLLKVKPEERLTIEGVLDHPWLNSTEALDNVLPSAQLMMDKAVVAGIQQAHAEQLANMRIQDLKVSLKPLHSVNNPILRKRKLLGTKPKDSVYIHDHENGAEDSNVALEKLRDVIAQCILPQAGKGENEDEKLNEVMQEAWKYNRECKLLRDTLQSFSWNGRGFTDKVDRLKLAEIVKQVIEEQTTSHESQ

[4] = molecular target: Homeodomain-interacting protein kinase 3 (Homo sapiens) (UniProt Q9H422); experiment: Percentage HIPK3 activity remaining in the presence of 2uM inhibitor; details: filed as antagonist
[5] = molecular target: T2, Serine/threonine-protein kinase Chk1 (Homo sapiens) (UniProt O14757); experiment: Percentage CHK1 activity remaining in the presence of 2uM inhibitor
T2 sequence (whole entry): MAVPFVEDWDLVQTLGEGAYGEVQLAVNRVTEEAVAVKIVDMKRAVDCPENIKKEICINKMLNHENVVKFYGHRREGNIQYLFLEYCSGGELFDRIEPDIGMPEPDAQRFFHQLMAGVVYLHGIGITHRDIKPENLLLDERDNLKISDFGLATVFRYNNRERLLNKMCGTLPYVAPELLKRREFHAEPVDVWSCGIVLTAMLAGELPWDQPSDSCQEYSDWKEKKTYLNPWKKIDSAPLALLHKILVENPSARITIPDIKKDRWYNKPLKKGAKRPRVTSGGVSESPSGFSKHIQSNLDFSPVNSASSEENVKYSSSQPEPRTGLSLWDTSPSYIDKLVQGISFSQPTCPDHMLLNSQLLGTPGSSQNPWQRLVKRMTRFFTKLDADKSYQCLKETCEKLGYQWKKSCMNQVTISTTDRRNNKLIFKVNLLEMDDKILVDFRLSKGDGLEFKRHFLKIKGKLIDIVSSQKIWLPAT

[6] = molecular target: Serine/threonine-protein kinase Nek6 (Homo sapiens) (UniProt Q9HC98); experiment: Percentage NEK6 activity remaining in the presence of 2uM inhibitor
[7] = molecular target: T3, Serine/threonine-protein kinase BRSK2 (Homo sapiens) (UniProt Q8IWQ3); experiment: Percentage BRSK2 activity remaining in the presence of 3uM inhibitor
T3 sequence (whole entry): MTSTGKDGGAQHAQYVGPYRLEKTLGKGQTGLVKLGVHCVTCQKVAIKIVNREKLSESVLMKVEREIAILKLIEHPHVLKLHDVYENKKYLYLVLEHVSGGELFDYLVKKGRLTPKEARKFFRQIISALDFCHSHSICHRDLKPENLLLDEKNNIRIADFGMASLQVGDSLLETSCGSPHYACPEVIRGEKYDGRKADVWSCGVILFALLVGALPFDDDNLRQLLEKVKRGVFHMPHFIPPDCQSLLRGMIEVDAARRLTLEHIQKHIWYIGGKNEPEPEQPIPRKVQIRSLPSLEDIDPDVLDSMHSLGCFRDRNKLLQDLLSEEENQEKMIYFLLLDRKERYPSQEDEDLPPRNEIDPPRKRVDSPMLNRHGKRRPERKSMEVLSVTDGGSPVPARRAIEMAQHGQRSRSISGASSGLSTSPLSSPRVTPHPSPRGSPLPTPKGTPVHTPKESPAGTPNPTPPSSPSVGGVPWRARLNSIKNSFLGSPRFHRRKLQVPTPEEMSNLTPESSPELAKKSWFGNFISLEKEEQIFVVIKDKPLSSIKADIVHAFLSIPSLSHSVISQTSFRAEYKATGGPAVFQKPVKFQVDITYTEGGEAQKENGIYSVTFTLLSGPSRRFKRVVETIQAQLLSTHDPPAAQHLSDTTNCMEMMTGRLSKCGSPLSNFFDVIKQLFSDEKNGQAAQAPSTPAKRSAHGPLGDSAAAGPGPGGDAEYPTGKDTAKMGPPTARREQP

Homo sapiens = organism: Homo sapiens; experiment: Percentage PHK activity remaining in the presence of 3uM inhibitor
[8] = molecular target: Dual specificity tyrosine-phosphorylation-regulated kinase 1A (Homo sapiens) (UniProt Q13627); experiment: Percentage DYRK1A activity remaining in the presence of 3uM inhibitor
[9] = molecular target: Glycogen synthase kinase-3 beta (Homo sapiens, UniProt P49841); experiment: Percentage GSK3-beta activity remaining in the presence of 3uM inhibitor
[10] = molecular target: T4, Inhibitor of nuclear factor kappa-B kinase subunit epsilon (Homo sapiens) (UniProt Q14164); experiment: Percentage IKKepsilon activity remaining in the presence of 0.1uM inhibitor; details: filed as antagonist
T4 sequence (whole entry): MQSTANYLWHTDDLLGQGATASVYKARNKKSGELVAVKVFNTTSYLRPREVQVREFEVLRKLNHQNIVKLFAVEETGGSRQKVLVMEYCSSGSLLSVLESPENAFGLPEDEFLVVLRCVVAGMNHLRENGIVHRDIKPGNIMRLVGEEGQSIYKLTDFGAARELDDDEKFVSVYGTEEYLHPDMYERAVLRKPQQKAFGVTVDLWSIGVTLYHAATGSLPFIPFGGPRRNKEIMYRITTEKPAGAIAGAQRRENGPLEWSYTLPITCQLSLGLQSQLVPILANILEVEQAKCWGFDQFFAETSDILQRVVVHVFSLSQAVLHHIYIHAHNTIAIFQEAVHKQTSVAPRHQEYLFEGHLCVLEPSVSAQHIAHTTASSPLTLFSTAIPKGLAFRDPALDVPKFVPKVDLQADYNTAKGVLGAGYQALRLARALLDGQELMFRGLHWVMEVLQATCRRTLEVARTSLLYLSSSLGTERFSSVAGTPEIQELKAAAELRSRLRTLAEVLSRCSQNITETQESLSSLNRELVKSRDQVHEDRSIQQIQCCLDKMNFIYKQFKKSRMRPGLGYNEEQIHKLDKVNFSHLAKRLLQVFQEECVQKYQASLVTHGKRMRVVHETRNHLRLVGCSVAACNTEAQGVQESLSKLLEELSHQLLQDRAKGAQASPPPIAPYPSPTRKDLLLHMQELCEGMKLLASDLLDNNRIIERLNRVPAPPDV

Serine/threonine-protein kinase Nek6 (Homo sapiens), sequence (Q9HC98 whole entry): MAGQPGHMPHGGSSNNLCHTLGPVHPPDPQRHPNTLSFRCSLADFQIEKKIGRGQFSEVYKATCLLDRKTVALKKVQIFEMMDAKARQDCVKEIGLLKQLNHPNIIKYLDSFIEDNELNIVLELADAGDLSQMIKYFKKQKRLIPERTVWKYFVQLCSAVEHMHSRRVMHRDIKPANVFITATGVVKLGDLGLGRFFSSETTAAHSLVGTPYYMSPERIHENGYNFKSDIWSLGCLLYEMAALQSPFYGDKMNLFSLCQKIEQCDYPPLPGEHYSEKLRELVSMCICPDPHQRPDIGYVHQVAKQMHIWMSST
Myosin light chain kinase, smooth muscle, sequence (Q15746 whole entry): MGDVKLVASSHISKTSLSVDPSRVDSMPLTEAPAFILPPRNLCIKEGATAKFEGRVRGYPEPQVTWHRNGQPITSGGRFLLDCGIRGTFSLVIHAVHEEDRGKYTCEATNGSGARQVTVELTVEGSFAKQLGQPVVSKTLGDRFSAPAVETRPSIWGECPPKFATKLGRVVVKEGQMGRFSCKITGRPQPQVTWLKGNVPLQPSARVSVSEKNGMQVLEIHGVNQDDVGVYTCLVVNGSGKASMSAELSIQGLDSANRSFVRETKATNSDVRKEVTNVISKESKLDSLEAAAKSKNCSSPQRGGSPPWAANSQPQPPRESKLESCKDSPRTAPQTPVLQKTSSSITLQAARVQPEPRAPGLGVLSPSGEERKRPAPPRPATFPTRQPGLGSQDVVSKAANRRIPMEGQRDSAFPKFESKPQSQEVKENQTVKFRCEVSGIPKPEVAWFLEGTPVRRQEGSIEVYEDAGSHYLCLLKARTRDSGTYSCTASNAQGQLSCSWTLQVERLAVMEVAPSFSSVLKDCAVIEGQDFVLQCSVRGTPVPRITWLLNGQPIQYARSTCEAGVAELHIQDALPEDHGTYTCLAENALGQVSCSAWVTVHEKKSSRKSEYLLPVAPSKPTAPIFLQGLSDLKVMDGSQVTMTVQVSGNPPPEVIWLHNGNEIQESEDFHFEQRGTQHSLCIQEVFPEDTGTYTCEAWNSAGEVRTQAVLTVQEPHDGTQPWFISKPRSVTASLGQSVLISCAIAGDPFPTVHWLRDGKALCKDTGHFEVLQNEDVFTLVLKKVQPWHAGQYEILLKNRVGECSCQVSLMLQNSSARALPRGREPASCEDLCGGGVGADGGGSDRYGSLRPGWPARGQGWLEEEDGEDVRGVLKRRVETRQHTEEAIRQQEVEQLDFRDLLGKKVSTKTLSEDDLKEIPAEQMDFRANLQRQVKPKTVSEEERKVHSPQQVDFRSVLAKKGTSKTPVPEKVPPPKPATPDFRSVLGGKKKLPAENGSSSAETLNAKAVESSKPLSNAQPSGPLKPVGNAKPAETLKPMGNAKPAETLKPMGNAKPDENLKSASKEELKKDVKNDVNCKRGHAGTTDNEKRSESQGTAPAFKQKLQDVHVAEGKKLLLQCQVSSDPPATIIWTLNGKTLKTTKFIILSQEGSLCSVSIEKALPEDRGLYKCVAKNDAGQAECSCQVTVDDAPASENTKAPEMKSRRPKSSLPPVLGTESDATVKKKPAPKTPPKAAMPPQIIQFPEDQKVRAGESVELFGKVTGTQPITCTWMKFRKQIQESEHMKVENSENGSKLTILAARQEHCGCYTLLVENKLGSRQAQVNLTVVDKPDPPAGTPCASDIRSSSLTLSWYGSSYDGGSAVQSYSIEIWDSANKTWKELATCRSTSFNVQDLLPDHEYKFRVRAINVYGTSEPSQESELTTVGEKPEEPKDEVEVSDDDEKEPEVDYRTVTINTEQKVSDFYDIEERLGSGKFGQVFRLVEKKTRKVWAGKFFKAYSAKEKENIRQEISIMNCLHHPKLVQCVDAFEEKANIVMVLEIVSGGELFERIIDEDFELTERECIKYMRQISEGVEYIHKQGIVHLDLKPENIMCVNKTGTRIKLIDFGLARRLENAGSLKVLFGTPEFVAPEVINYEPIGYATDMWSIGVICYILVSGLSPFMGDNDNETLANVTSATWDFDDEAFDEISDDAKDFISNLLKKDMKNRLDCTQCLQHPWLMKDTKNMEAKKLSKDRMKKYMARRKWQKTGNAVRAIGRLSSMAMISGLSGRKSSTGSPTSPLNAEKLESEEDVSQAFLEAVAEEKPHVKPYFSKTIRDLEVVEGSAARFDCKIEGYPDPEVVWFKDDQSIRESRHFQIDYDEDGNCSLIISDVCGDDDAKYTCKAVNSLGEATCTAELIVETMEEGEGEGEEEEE
Homeodomain-interacting protein kinase 3 (Homo sapiens), sequence (Q9H422 whole entry, looked up): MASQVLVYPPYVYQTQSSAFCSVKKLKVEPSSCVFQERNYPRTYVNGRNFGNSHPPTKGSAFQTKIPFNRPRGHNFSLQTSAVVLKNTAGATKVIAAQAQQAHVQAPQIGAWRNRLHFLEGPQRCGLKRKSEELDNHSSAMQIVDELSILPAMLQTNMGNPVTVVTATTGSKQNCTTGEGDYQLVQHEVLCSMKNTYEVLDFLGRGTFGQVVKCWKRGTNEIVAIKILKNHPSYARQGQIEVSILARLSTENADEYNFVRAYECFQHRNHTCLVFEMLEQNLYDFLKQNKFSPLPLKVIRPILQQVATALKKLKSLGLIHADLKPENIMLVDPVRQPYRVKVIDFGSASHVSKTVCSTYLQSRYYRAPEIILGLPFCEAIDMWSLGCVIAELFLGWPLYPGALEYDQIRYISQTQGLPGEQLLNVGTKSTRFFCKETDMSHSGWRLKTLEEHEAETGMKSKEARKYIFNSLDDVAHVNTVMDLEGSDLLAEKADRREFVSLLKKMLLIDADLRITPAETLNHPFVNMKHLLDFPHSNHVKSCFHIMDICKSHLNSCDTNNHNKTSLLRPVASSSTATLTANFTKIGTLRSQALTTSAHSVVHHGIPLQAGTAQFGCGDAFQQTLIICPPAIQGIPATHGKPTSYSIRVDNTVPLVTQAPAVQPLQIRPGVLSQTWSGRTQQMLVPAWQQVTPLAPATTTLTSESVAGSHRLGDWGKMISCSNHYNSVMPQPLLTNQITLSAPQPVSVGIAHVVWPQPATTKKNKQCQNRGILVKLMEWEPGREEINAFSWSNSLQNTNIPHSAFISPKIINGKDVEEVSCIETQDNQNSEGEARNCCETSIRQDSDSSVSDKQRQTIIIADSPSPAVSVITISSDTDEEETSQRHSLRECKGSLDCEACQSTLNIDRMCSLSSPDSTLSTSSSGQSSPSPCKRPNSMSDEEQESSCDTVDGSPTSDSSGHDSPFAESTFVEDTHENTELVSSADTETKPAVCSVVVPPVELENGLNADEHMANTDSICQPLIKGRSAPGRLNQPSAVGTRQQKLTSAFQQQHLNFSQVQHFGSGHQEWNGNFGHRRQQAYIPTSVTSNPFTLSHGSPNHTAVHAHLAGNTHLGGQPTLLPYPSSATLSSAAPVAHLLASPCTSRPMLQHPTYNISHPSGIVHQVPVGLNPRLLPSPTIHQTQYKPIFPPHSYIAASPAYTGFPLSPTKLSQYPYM
MAP/microtubule affinity-regulating kinase 3 (Homo sapiens), sequence (P27448 whole entry, looked up): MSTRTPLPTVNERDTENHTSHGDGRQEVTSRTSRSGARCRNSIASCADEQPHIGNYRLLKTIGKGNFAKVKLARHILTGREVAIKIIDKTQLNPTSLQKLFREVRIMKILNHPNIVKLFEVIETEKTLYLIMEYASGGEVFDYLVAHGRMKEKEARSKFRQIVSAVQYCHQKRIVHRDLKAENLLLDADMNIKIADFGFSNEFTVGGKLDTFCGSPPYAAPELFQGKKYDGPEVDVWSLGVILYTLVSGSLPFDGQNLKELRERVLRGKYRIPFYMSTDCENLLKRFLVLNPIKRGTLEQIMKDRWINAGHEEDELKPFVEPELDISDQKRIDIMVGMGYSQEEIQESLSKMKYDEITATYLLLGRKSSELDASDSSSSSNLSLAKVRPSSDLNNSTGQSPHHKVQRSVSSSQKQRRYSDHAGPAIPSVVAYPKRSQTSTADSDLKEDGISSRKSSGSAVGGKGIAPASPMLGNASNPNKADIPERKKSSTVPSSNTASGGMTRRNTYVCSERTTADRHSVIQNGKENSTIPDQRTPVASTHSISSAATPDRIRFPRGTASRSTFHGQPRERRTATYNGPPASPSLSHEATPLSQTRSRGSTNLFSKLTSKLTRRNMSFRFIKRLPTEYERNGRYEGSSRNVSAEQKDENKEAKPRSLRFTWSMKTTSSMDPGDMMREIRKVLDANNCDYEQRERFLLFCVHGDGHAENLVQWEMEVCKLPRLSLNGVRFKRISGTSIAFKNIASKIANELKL
Glycogen synthase kinase-3 beta, sequence (P49841 whole entry, looked up): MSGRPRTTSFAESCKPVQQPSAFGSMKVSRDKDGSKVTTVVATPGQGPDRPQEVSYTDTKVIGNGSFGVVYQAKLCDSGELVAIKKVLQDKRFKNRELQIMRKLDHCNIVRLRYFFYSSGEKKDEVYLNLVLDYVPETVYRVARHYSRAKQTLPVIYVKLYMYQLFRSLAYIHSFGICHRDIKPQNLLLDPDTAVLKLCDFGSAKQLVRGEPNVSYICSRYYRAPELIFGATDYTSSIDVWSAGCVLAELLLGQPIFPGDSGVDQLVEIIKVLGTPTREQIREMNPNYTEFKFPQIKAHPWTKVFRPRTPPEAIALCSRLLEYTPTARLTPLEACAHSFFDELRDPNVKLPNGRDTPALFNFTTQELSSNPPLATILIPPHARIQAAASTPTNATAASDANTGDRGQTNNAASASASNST

Activity [1]: 76% | Activity [2]: 60% | Activity [3]: 90% | Activity [4]: 41% | Activity [5]: 87% | Activity [6]: 74%
Compound: Cn1cc(C2=C(c3ccc(Cl)cc3Cl)C(=O)NC2=O)c2ccccc21

Activity [7]: 53% | Activity (Homo sapiens): 93% | Activity [8]: 86% | Activity [9]: 65%
Compound: Cc1ccc(-c2c(C(=O)CF)n(CCCO)c3ncnc(N)c23)cc1

Activity [10]: 0%
Compound: O=C(NCCCNc1nc(Nc2cccc(NC(=O)N3CCCC3)c2)ncc1I)c1cccs1
